Measurements as given in ChEMBL document CHEMBL3044687, “Microwave-assisted synthesis of some novel and potent antibacterial and antifungal compounds with biological screening” (2012).

Tests used:
Type in all cases: functional
Settings in all cases: read-out: DIZ
[1] = tested on: Pseudomonas aeruginosa; experiment: Antibacterial activity against Pseudomonas aeruginosa at 50 ug/ml after 24 hr by disk diffusion method
[2] = tested on: Candida albicans; experiment: Antifungal activity against Candida albicans at 50 ug/ml after 48 hr by disk diffusion method
[3] = tested on: Escherichia coli; experiment: Antibacterial activity against Escherichia coli at 100 ug/ml after 24 hr by disk diffusion method
[4] = tested on: Aspergillus niger; experiment: Antifungal activity against Aspergillus niger at 50 ug/ml after 48 hr by disk diffusion method
[5] = tested on: Staphylococcus aureus; experiment: Antibacterial activity against Staphylococcus aureus at 100 ug/ml after 24 hr by disk diffusion method
[6] = tested on: Candida albicans; experiment: Antifungal activity against Candida albicans at 100 ug/ml after 48 hr by disk diffusion method
[7] = tested on: Pseudomonas aeruginosa; experiment: Antibacterial activity against Pseudomonas aeruginosa at 200 ug/ml after 24 hr by disk diffusion method
[8] = tested on: Staphylococcus aureus; experiment: Antibacterial activity against Staphylococcus aureus at 200 ug/ml after 24 hr by disk diffusion method
[9] = tested on: Aspergillus niger; experiment: Antifungal activity against Aspergillus niger at 100 ug/ml after 48 hr by disk diffusion method
[10] = tested on: Staphylococcus aureus; experiment: Antibacterial activity against Staphylococcus aureus at 50 ug/ml after 24 hr by disk diffusion method
[11] = tested on: Pseudomonas aeruginosa; experiment: Antibacterial activity against Pseudomonas aeruginosa at 100 ug/ml after 24 hr by disk diffusion method
[12] = tested on: Bacillus subtilis; experiment: Antibacterial activity against Bacillus subtilis at 50 ug/ml after 24 hr by disk diffusion method
[13] = tested on: Escherichia coli; experiment: Antibacterial activity against Escherichia coli at 200 ug/ml after 24 hr by disk diffusion method
[14] = tested on: Candida albicans; experiment: Antifungal activity against Candida albicans at 200 ug/ml after 48 hr by disk diffusion method
[15] = tested on: Aspergillus niger; experiment: Antifungal activity against Aspergillus niger at 200 ug/ml after 48 hr by disk diffusion method
[16] = tested on: Bacillus subtilis; experiment: Antibacterial activity against Bacillus subtilis at 200 ug/ml after 24 hr by disk diffusion method
[17] = tested on: Escherichia coli; experiment: Antibacterial activity against Escherichia coli at 50 ug/ml after 24 hr by disk diffusion method
[18] = tested on: Bacillus subtilis; experiment: Antibacterial activity against Bacillus subtilis at 100 ug/ml after 24 hr by disk diffusion method

| SMILES | zone of inhibition at 50 µg/mL [1] [mm] | zone of inhibition at 50 µg/mL [2] [mm] | zone of inhibition at 100 µg/mL [3] [mm] | zone of inhibition at 50 µg/mL [4] [mm] | zone of inhibition at 100 µg/mL [5] [mm] | zone of inhibition at 100 µg/mL [6] [mm] | zone of inhibition at 200 µg/mL [7] [mm] | zone of inhibition at 200 µg/mL [8] [mm] | zone of inhibition at 100 µg/mL [9] [mm] | zone of inhibition at 50 µg/mL [10] [mm] | zone of inhibition at 100 µg/mL [11] [mm] | zone of inhibition at 50 µg/mL [12] [mm] | zone of inhibition at 200 µg/mL [13] [mm] | zone of inhibition at 200 µg/mL [14] [mm] | zone of inhibition at 200 µg/mL [15] [mm] | zone of inhibition at 200 µg/mL [16] [mm] | zone of inhibition at 50 µg/mL [17] [mm] | zone of inhibition at 100 µg/mL [18] [mm] |
| --- | --- | --- | --- | --- | --- | --- | --- | --- | --- | --- | --- | --- | --- | --- | --- | --- | --- | --- |
| CCN(CC)CN1C(=O)NC(c2ccccc2)(c2ccccc2)C1=O | 5 | 9 | 13 | 8 | 10 | 10 | 14 | 14 | 10 | 5 | 9 | 3 | 18 | 11 | 12 | 15 | 3 | 9 |
| O=C1N(c2ccccc2)C(=O)C(c2ccccc2)(c2ccccc2)N1Cn1nnc2ccccc21 | 6 | 11 | 8 | 11 | 10 | 12 | 12 | 14 | 11 | 4 | 10 | 5 | 14 | 13 | 11 | 18 | 3 | 12 |
| CN1CCN(CN2C(=O)N(c3ccccc3)C(=O)C2(c2ccccc2)c2ccccc2)CC1 | 4 | 12 | 13 | 11 | 10 | 13 | 10 | 18 | 12 | 6 | 6 | 4 | 16 | 13 | 12 | 14 | 6 | 5 |
| O=C1N(c2ccccc2)C(=O)C(c2ccccc2)(c2ccccc2)N1CNc1nccs1 | 4 | 11 | 10 | 11 | 10 | 12 | 18 | 18 | 11 | 4 | 12 | 5 | 18 | 13 | 11 | 13 | 5 |  |
| O=C1NC(c2ccccc2)(c2ccccc2)C(=O)N1CN1C(=O)c2ccccc2C1=O | 5 | 15 | 12 | 12 | 6 | 16 | 10 | 9 | 15 | 4 | 8 | 4 | 20 | 20 | 16 | 16 | 5 | 12 |
| O=C1NC(c2ccccc2)(c2ccccc2)C(=O)N1Cn1nnc2ccccc21 | 6 | 11 | 10 | 11 | 12 | 12 | 14 | 18 | 11 | 6 | 10 | 5 | 18 | 13 | 11 | 22 | 3 | 14 |
| O=C1NC(c2ccccc2)(c2ccccc2)C(=O)N1CNc1nccs1 | 4 | 11 | 15 | 11 | 10 | 12 | 20 | 21 | 11 | 4 | 12 | 5 | 24 | 13 | 11 | 19 | 6 | 11 |
| O=C1N(c2ccccc2)C(=O)C(c2ccccc2)(c2ccccc2)N1CN1CCOCC1 | 4 | 10 | 8 | 10 | 6 | 12 | 11 | 9 | 11 | 5 | 6 | 4 | 15 | 15 | 12 | 11 | 4 | 9 |
| O=C1N(c2ccccc2)C(=O)C(c2ccccc2)(c2ccccc2)N1Cn1ccnc1 | 5 | 10 | 14 | 10 | 9 | 11 | 18 | 18 | 12 | 4 | 9 | 5 | 19 | 13 | 13 | 13 | 5 | 11 |
| CN(C)CN1C(=O)NC(c2ccccc2)(c2ccccc2)C1=O | 6 | 16 | 13 | 16 | 9 | 18 | 17 | 12 | 18 | 4 | 10 | 5 | 22 | 19 | 18 | 22 | 5 | 10 |
| O=C1NC(c2ccccc2)(c2ccccc2)C(=O)N1Cn1ccnc1 | 6 | 17 | 16 | 15 | 11 | 24 | 20 | 20 | 17 | 6 | 10 | 5 | 22 | 30 | 19 | 15 | 6 | 11 |
| COC1=CC(=O)C[C@@H](C)[C@]12Oc1c(Cl)c(OC)cc(OC)c1C2=O [GRISEOFULVIN] |  | 18 |  | 21 |  | 25 |  |  | 24 |  |  |  |  | 40 | 40 |  |  |  |
| CC1(C)S[C@@H]2[C@H](NC(=O)[C@H](N)c3ccccc3)C(=O)N2[C@H]1C(=O)O [AMPICILLIN] | 9 |  | 18 |  | 14 |  | 23 | 23 |  | 9 | 14 | 10 | 29 |  |  | 26 | 10 | 16 |
